Measured values taken from US20150141411A1, “SUBSTITUTED 3,4-DIHYDRO-2H-PYRIDO[1,2-A]PYRAZINE-1,6-DIONE DERIVATIVES USEFUL FOR THE TREATMENT OF (INTER ALIA) ALZHEIMER'S DISEASE” (Janssen Pharmaceuticals, Inc., priority 2012, published 2015).
Counter-ions that a name gives are not always drawn.

What was measured:
[1] = target: T1, γ-secretase (Homo sapiens, UniProt P49768); assay: Screening for γ-secretase-modulating activity: Aβtotal in supernatant of SKNBE2 cells carrying hAPP 695 wild type (Alphalisa); type: cell-based; settings: SKNBE2 human neuroblastoma cells carrying hAPP 695 wild type, overnight incubation, Aβtotal in cell supernatant
T1 construct: endogenous in cells; host or cells: SKNBE2 human neuroblastoma cells (carrying hAPP 695 wild type as substrate)
Method in brief: (§1)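 SKNBE2 neuroblastoma cells expressing wild-type hAPP 695 plated at 10^4 cells/well in Ultraculture with test compound, incubated overnight at 37° C. Aβ42 (C-terminal/N-terminal antibody pair) and Aβtotal (N-terminal/4G8 pair) in supernatant quantified by AlphaLISA. IC50 from 4-parameter fit of percent of compound-free control.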

[2] = target: T1, γ-secretase; assay: Screening for γ-secretase-modulating activity: Aβ42 in supernatant of SKNBE2 cells carrying hAPP 695 wild type (Alphalisa); type: cell-based; settings: SKNBE2 human neuroblastoma cells carrying hAPP 695 wild type, overnight incubation, Aβ42 in cell supernatant
Method in brief: as §1

melting point	IC50 [1]	IC50 [2]	SMILES
233.6 °C			Cc1cn(-c2ccc3n(c2=O)C[C@@H](C)N(Cc2cc(N4CCCC4)ccc2Cl)C3=O)cn1 (as salt: HCl) [compound 82]
185.3 °C			Cc1cn(-c2ccc3n(c2=O)C[C@@H](C)N(Cc2cc(N4CCCCC4)cc(C(F)(F)F)c2)C3=O)cn1 (as salt: HCl) [compound 86]
126.9 °C			Cc1cn(-c2ccc3n(c2=O)C[C@@H](C)N(Cc2ccc(C)c(-n4cccn4)c2)C3=O)cn1 (as salt: HCl) [compound 114]
116.9 °C			Cc1cn(-c2ccc3n(c2=O)C[C@@H](C)N(Cc2cc(OC(C)C)nc(C(F)(F)F)c2)C3=O)cn1 (as salt: HCl) [compound 128]
136 °C			Cc1cn(-c2ccc3n(c2=O)C[C@@H](C)N(Cc2cc(CC(F)(F)F)cc(C(F)(F)F)c2)C3=O)cn1 (as salt: HCl) [compound 134]
195.9 °C			Cc1cn(-c2ccc3n(c2=O)C[C@@H](C)N(Cc2cc(F)cc(OC(F)(F)F)c2)C3=O)cn1 (as salt: HCl) [compound 139]
115.2 °C			Cc1cn(-c2ccc3n(c2=O)C[C@@H](C)N(Cc2cc(OC(F)(F)F)cc(C(F)(F)F)c2)C3=O)cn1 (as salt: HCl) [compound 140]
204.5 °C			Cc1cn(-c2ccc3n(c2=O)C[C@@H](C)N(Cc2cc(Br)cc(C(F)(F)F)c2)C3=O)cn1 (as salt: HCl) [compound 145]
103.1 °C			Cc1cn(-c2ccc3n(c2=O)C[C@@H](C)N(Cc2cc(OC(C)C)c(Cl)cc2F)C3=O)cn1 (as salt: HCl) [compound 163]
137.5 °C			Cc1cn(-c2ccc3n(c2=O)C[C@@H](C)N(Cc2cc(OCC(F)(F)F)cc(C(F)(F)F)c2)C3=O)cn1 (as salt: HCl) [compound 166]
130.6 °C			Cc1cn(-c2ccc3n(c2=O)C[C@@H](C)N(Cc2ccc(C(F)(F)F)c(N4CCCCC4)c2)C3=O)cn1 (as salt: HCl) [compound 171]
218 °C			Cc1cn(-c2ccc3n(c2=O)C[C@@H](C)N(CCc2cccc(Cl)c2Cl)C3=O)cn1 (as salt: HCl) [compound 231]
190 °C			Cc1cn(-c2ccc3n(c2=O)C[C@@H](C)N(Cc2cn(C)c4ccc(OC(F)(F)F)cc24)C3=O)cn1 (as salt: HCl) [compound 253]
213.2 °C			Cc1cn(-c2ccc3n(c2=O)C[C@@H](C)N(C(C)c2cc(CC4CC4)cc(C(F)(F)F)c2)C3=O)cn1 (single isomer, unassigned) (as salt: HCl) [compound 135]
146.2 °C			CCC(c1cc(OC)cc(C(F)(F)F)c1)N1C(=O)c2ccc(-n3cnc(C)c3)c(=O)n2C[C@H]1C (single isomer, unassigned) (as salt: HCl) [compound 141]
141.4 °C			CCC(c1cc(OC)cc(C(F)(F)F)c1)N1C(=O)c2ccc(-n3cnc(C)c3)c(=O)n2C[C@H]1C (single isomer, unassigned) (as salt: HCl) [compound 142]
229.3 °C			CCOc1cc(C(C)N2C(=O)c3ccc(-n4cnc(C)c4)c(=O)n3C[C@H]2C)cc(C(F)(F)F)c1 (single isomer, unassigned) (as salt: HCl) [compound 143]
194.4 °C			CCOc1cc(C(C)N2C(=O)c3ccc(-n4cnc(C)c4)c(=O)n3C[C@H]2C)cc(C(F)(F)F)c1 (single isomer, unassigned) (as salt: HCl) [compound 144]
232.9 °C			Cc1cn(-c2ccc3n(c2=O)C[C@@H](C)N(C(C)c2cccc(OC(F)(F)F)c2)C3=O)cn1 (single isomer, unassigned) (as salt: HCl) [compound 147]
122 °C			COc1cc(C(C)N2C(=O)c3ccc(-n4cnc(C)c4)c(=O)n3C[C@H]2C)cc(C(F)(F)F)c1 (single isomer, unassigned) (as salt: HCl) [compound 149]
206.8 °C	> 10 µM	4470 nM	Cc1cn(-c2ccc3n(c2=O)CCN(C(C)c2ccc(Cl)c(Cl)c2)C3=O)cn1 (single isomer, unassigned) [9a]
206.4 °C	> 10 µM	6610 nM	Cc1cn(-c2ccc3n(c2=O)CCN(C(C)c2cccc(Cl)c2Cl)C3=O)cn1 (single isomer, unassigned) [10b]
181.1 °C	> 10 µM	660 nM	Cc1cn(-c2ccc3n(c2=O)CCN(C(C)c2cccc(C(F)(F)F)c2)C3=O)cn1 (single isomer, unassigned) [11a]
181 °C	> 10 µM	7760 nM	Cc1cn(-c2ccc3n(c2=O)CCN(C(C)c2cccc(C(F)(F)F)c2)C3=O)cn1 (single isomer, unassigned) [11b]
261 °C	> 10 µM	780 nM	Cc1cn(-c2ccc3n(c2=O)CCN(C(C)c2cn(C)c4cc(F)c(Cl)cc24)C3=O)cn1 (single isomer, unassigned) [compound 186]

melting point	IC50 [1]	IC50 [2]	SMILES
255 °C	3.31 µM	10 nM	Cc1cn(-c2ccc3n(c2=O)CC(C)N(C(C)c2cn(C)c4cc(F)c(Cl)cc24)C3=O)cn1 (single isomer, unassigned) [compound 190]
206 °C	> 10 µM	3890 nM	Cc1cn(-c2ccc3n(c2=O)CCN(C(C)c2cc(Cl)cc(Cl)c2)C3=O)cn1 (single isomer, unassigned) [compound 208]
146 °C	> 10 µM	90 nM	Cc1cn(-c2ccc3n(c2=O)C[C@@H](C)N(C(C)c2cc(Cl)cc(Cl)c2)C3=O)cn1 (single isomer, unassigned) [compound 211]
194 °C	0.79 µM	5 nM	CCn1cc(C(C)N2C(=O)c3ccc(-n4cnc(C)c4)c(=O)n3CC2C)c2cc(Cl)cc(F)c21 (single isomer, unassigned) [compound 221]
243 °C	6.61 µM	220 nM	Cc1cn(-c2ccc3n(c2=O)CC(C)N(C(C)c2cn(C)c4c(F)cc(Cl)cc24)C3=O)cn1 (single isomer, unassigned) [compound 223]
192.6 °C	> 10 µM	1700 nM	Cc1cn(-c2ccc3n(c2=O)CCN(CCC2CCCCC2)C3=O)cn1 [compound 18]
199.8 °C	> 10 µM	1550 nM	Cc1cn(-c2ccc3n(c2=O)C[C@@H](C)N(CC2(c4ccccc4C)CC2)C3=O)cn1 [compound 20]
163 °C	> 10 µM	1950 nM	Cc1cn(-c2ccc3n(c2=O)C[C@@H](C)N(Cc2ccccc2C)C3=O)cn1 [compound 21]
176.7 °C	> 10 µM	1700 nM	Cc1cn(-c2ccc3n(c2=O)CCN(Cc2cccc(Cl)c2)C3=O)cn1 [compound 25]
184.4 °C	> 10 µM	1660 nM	Cc1cn(-c2ccc3n(c2=O)CCN(CCc2ccc(Cl)cc2)C3=O)cn1 [compound 26]
168 °C	> 10 µM	590 nM	Cc1cn(-c2ccc3n(c2=O)CCN(CCOCc2ccc(Cl)cc2)C3=O)cn1 [compound 27]
157.4 °C	> 10 µM	280 nM	Cc1cn(-c2ccc3n(c2=O)C[C@@H](C)N(CC2(c4ccc(Cl)cc4)CC2)C3=O)cn1 [compound 28]
227.1 °C	> 10 µM	270 nM	Cc1cn(-c2ccc3n(c2=O)CCN(CC2(c4ccc(Cl)cc4)CC2)C3=O)cn1 [compound 29]
168.5 °C	> 10 µM	2040 nM	Cc1cn(-c2ccc3n(c2=O)CCN(C2CC2c2ccc(Cl)cc2)C3=O)cn1 (stereo not shown) [compound 30]
182.2 °C	> 10 µM	1020 nM	Cc1cn(-c2ccc3n(c2=O)C[C@@H](C)N(Cc2cccc(Cl)c2F)C3=O)cn1 [compound 35]
224.9 °C	> 10 µM	510 nM	Cc1cn(-c2ccc3n(c2=O)CCN(Cc2cccc(Cl)c2Cl)C3=O)cn1 [compound 36]
190.8 °C	3.63 µM	330 nM	Cc1cn(-c2ccc3n(c2=O)CCN(Cc2ccc(Cl)c(Cl)c2)C3=O)cn1 [compound 38]
182.1 °C	> 10 µM	510 nM	Cc1cn(-c2ccc3n(c2=O)C[C@@H](C)N(Cc2cccc(Cl)c2C)C3=O)cn1 [compound 40]
183.4 °C	> 10 µM	740 nM	Cc1cn(-c2ccc3n(c2=O)CCN(Cc2cccc(C(F)(F)F)c2)C3=O)cn1 [compound 42]
164.9 °C	> 10 µM	620 nM	Cc1cn(-c2ccc3n(c2=O)C[C@@H](C)N(Cc2ccc(C(F)(F)F)cc2)C3=O)cn1 [compound 43]
219 °C	> 10 µM	210 nM	Cc1cn(-c2ccc3n(c2=O)CCN(Cc2cc(C(F)(F)F)cc(C(F)(F)F)c2)C3=O)cn1 [compound 53]
227.5 °C	> 10 µM	3800 nM	Cc1cn(-c2ccc3n(c2=O)CCN(c2cccc(C(F)(F)F)c2F)C3=O)cn1 [compound 55]
197.6 °C	> 10 µM	1700 nM	Cc1cn(-c2ccc3n(c2=O)CCN(Cc2cccc(C(F)(F)F)c2F)C3=O)cn1 [compound 56]
208 °C		30 nM	Cc1cn(-c2ccc3n(c2=O)CCN(Cc2c[nH]c4c(Cl)cc(Cl)cc24)C3=O)cn1 [compound 260]
